# Results published in the kinase profiling compilation of Christmann-Franck et al. (2016).
# Experiments:
# Assay in all cases: radiometric filter-binding kinase assay
# [1] = biological target: AURKA (human) (UniProt O14965)
# [2] = biological target: BRSK1 (human) (UniProt Q8TDC3)
# [3] = biological target: BRSK2 (human) (UniProt Q8IWQ3)
# [4] = biological target: CDK2 CCNA2 (human) (UniProt P20248+P24941)
# [5] = biological target: CLK2 (human) (UniProt P49760)
# [6] = biological target: CSK (human) (UniProt P41240)
# [7] = biological target: CSNK1D (human) (UniProt P48730)
# [8] = biological target: EPHA4 (human) (UniProt P54764)
# [9] = biological target: EPHB2 (human) (UniProt P29323)
# [10] = biological target: FGFR1 (human) (UniProt P11362)
# [11] = biological target: FLT1 (human) (UniProt P17948)
# [12] = biological target: INSR (human) (UniProt P06213)
# [13] = biological target: INSRR (human) (UniProt P14616)
# [14] = biological target: IRAK4 (human) (UniProt Q9NWZ3)
# [15] = biological target: JAK2 JH1 JH2 (human) (UniProt O60674)
# [16] = biological target: MAP2K2 (human) (UniProt P36507)
# [17] = biological target: MAP3K11 (human) (UniProt Q16584)
# [18] = biological target: MAP3K7 TAB1 (human) (UniProt Q15750+O43318)
# [19] = biological target: MAPK12 (human) (UniProt P53778)
# [20] = biological target: MAPK8 (human) (UniProt P45983)
# [21] = biological target: MAPKAPK3 (human) (UniProt Q16644)
# [22] = biological target: MARK4 (human) (UniProt Q96L34)
# [23] = biological target: MELK (human) (UniProt Q14680)
# [24] = biological target: MYLK (human) (UniProt Q15746)
# [25] = system: PAK2 (human), Q13177 [T402E]
# [26] = biological target: PIM1 (human) (UniProt P11309)
# [27] = biological target: PIM3 (human) (UniProt Q86V86)
# [28] = biological target: PLK1 (human) (UniProt P53350)
# [29] = biological target: RIPK2 (human) (UniProt O43353)
# [30] = biological target: RPS6KA3 KD1 KD2 (human) (UniProt P51812)
# [31] = system: RPS6KB1 (human), P23443 [T412E]
# [32] = system: SGK1 (human), O00141 [S422D]
# [33] = biological target: SYK (human) (UniProt P43405)
# [34] = biological target: TBK1 (human) (UniProt Q9UHD2)
# [35] = biological target: TTK (human) (UniProt P33981)
# Sequence of EPHA4 (human) (P54764 whole entry, looked up): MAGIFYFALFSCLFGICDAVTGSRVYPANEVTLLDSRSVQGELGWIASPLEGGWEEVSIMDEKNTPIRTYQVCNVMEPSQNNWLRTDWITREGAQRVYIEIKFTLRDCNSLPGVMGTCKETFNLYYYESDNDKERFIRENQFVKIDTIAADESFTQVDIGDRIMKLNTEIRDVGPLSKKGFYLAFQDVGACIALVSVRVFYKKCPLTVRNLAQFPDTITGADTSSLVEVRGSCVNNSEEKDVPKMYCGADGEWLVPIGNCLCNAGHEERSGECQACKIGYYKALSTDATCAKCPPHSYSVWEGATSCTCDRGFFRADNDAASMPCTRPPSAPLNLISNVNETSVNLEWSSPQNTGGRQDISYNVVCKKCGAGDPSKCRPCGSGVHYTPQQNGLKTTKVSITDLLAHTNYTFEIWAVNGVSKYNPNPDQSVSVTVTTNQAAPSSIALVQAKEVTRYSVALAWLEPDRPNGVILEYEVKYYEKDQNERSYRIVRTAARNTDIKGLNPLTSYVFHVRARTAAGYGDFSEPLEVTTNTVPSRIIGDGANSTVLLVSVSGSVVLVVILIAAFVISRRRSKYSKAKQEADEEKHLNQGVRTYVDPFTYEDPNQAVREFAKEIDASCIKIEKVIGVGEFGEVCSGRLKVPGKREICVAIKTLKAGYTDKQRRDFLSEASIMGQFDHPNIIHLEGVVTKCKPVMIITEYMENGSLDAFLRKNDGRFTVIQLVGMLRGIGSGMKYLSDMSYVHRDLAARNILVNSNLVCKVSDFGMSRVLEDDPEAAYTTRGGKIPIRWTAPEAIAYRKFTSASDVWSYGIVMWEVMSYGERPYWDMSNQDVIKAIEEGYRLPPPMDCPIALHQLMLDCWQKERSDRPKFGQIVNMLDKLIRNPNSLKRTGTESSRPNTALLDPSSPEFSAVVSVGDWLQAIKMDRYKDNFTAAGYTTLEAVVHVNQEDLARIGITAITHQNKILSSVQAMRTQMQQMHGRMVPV
# Sequence of MAP2K2 (human) (P36507 whole entry, looked up): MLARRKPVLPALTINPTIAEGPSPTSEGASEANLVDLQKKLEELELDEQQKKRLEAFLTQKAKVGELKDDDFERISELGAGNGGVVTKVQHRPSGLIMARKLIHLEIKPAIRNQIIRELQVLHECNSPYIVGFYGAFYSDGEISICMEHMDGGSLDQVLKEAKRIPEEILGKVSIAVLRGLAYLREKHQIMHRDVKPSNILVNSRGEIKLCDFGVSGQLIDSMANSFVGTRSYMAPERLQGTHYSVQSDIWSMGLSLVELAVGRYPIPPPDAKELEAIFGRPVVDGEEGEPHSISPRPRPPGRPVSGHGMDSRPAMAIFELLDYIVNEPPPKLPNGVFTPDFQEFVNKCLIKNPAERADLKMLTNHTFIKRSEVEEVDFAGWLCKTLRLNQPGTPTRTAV
# Sequence of BRSK2 (human) (Q8IWQ3 whole entry, looked up): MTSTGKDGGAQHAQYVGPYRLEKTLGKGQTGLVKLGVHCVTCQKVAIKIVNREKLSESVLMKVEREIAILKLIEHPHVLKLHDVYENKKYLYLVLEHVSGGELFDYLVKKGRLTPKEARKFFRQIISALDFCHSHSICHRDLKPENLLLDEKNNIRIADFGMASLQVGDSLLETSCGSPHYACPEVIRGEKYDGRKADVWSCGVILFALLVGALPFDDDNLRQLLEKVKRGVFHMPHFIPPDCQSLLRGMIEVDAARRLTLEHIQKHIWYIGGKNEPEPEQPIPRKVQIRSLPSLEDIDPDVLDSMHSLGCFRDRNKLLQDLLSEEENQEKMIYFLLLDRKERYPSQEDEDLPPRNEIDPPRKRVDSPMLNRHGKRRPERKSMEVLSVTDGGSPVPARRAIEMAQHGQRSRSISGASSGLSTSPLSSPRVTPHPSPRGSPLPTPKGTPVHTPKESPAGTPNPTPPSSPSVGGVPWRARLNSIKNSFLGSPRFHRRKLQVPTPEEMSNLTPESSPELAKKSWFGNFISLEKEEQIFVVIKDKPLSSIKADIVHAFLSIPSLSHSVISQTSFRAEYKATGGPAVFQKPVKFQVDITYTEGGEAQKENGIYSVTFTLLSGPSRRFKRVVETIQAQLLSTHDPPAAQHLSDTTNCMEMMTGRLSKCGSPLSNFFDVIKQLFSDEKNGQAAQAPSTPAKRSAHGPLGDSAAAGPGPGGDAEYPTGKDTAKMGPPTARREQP
# Sequence of TBK1 (human) (Q9UHD2 whole entry, looked up): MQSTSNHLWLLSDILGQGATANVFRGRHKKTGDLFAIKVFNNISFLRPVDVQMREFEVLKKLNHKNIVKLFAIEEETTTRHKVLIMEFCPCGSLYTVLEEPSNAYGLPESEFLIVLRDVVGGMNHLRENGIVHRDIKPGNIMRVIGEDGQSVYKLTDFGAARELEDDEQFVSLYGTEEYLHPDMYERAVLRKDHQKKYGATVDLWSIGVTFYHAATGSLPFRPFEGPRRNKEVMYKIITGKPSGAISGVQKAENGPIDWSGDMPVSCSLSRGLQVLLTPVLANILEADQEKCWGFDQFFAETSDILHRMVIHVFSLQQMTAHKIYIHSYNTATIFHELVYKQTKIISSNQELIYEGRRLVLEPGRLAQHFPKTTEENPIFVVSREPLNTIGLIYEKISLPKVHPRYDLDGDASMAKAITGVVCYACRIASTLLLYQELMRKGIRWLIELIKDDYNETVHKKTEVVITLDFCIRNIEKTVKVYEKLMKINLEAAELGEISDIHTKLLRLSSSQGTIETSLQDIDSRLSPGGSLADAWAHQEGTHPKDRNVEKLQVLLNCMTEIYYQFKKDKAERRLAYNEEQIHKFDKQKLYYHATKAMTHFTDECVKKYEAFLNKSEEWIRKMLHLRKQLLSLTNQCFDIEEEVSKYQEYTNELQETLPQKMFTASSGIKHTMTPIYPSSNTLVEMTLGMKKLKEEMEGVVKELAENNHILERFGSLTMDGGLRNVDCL
# Sequence of RPS6KA3 KD1 KD2 (human) (P51812 whole entry, looked up): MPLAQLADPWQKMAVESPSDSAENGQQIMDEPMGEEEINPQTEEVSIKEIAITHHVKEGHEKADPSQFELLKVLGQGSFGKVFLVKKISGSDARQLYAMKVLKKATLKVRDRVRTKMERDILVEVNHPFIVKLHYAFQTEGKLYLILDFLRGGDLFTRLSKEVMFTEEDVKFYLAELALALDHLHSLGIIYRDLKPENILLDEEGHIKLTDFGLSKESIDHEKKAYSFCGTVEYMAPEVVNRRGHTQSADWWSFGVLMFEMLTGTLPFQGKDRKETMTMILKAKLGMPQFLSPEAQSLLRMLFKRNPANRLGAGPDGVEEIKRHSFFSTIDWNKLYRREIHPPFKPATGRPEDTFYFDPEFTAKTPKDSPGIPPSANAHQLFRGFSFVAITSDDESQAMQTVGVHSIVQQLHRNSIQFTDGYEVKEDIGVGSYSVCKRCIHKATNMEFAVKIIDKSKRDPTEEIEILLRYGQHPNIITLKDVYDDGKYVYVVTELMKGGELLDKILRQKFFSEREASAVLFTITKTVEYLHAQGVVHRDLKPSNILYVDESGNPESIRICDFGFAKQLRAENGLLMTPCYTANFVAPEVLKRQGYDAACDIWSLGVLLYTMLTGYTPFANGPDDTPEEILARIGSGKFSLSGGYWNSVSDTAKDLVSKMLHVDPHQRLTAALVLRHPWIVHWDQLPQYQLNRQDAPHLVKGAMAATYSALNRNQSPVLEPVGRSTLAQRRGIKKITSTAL
# Sequence of PIM1 (human) (P11309 whole entry, looked up): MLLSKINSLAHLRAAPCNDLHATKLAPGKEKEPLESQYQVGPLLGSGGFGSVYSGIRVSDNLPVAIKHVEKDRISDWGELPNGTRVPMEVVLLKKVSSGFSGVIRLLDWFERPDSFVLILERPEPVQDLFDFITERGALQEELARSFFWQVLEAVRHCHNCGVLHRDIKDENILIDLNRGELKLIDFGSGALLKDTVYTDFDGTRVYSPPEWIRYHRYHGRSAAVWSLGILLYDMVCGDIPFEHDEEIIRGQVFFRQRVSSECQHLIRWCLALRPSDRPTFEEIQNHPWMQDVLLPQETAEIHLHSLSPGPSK
# Sequence of MAP3K7 TAB1 (human) (O43318 whole entry, looked up): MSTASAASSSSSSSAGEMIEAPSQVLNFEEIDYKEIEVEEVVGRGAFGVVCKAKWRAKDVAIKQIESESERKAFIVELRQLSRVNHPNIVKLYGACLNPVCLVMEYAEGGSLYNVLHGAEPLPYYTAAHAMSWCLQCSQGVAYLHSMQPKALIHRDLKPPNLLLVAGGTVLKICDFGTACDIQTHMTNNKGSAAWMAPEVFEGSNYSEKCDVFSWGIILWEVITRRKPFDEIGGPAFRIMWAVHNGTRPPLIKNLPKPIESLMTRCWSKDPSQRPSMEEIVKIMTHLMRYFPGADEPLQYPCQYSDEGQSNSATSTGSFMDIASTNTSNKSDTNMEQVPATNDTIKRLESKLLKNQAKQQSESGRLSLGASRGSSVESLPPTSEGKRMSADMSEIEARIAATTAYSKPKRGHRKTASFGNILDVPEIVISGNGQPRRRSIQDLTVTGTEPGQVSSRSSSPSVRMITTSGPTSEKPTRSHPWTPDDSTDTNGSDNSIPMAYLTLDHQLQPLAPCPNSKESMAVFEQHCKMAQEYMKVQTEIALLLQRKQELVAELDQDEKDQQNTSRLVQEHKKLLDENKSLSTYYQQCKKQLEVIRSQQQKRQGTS
# Sequence of MAP3K7 TAB1 (human) (Q15750 whole entry, looked up): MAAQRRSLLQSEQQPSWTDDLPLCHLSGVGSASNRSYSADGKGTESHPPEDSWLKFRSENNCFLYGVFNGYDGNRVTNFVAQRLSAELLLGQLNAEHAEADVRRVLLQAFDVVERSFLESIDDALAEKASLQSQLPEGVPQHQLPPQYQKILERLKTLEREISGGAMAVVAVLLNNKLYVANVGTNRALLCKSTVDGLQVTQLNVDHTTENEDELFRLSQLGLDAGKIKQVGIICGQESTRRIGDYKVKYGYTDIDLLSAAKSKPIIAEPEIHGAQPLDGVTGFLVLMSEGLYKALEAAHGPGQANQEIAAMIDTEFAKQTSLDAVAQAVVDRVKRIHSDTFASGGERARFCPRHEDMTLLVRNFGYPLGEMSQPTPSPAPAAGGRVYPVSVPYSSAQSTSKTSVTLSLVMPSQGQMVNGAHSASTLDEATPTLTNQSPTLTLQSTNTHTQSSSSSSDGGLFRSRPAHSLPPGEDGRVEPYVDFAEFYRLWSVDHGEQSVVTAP
smiles,measurement,setting,value
c1ccc2c(-c3cnn4cc(-c5ccc(N6CCNCC6)cc5)cnc34)ccnc2c1,residual activity,[1]; compound 0.1 µM,100%
same,residual activity,[1]; compound 1.0 µM,91%
same,residual activity,[1]; compound 10.0 µM,56%
same,residual activity,[2]; compound 0.1 µM,88%
same,residual activity,[2]; compound 1.0 µM,85%
same,residual activity,[2]; compound 10.0 µM,57%
same,residual activity,[3]; compound 0.1 µM,88%
same,residual activity,[3]; compound 1.0 µM,68%
same,residual activity,[3]; compound 10.0 µM,20%
same,residual activity,[4]; compound 0.1 µM,84%
same,residual activity,[4]; compound 1.0 µM,84%
same,residual activity,[4]; compound 10.0 µM,34%
same,residual activity,[5]; compound 0.1 µM,67%
same,residual activity,[5]; compound 1.0 µM,21%
same,residual activity,[5]; compound 10.0 µM,5%
same,residual activity,[6]; compound 0.1 µM,95%
same,residual activity,[6]; compound 1.0 µM,103%
same,residual activity,[6]; compound 10.0 µM,72%
same,residual activity,[7]; compound 0.1 µM,91%
same,residual activity,[7]; compound 1.0 µM,69%
same,residual activity,[7]; compound 10.0 µM,22%
same,residual activity,[8]; compound 0.1 µM,84%
same,residual activity,[8]; compound 1.0 µM,83%
same,residual activity,[8]; compound 10.0 µM,57%
same,residual activity,[9]; compound 0.1 µM,108%
same,residual activity,[9]; compound 1.0 µM,80%
same,residual activity,[9]; compound 10.0 µM,37%
same,residual activity,[10]; compound 0.1 µM,69%
same,residual activity,[10]; compound 1.0 µM,20%
same,residual activity,[10]; compound 10.0 µM,8%
same,residual activity,[11]; compound 0.1 µM,48%
same,residual activity,[11]; compound 10.0 µM,0%
same,residual activity,[12]; compound 0.1 µM,105%
same,residual activity,[12]; compound 1.0 µM,107%
same,residual activity,[12]; compound 10.0 µM,93%
same,residual activity,[13]; compound 0.1 µM,82%
same,residual activity,[13]; compound 1.0 µM,68%
same,residual activity,[13]; compound 10.0 µM,37%
same,residual activity,[14]; compound 0.1 µM,88%
same,residual activity,[14]; compound 1.0 µM,91%
same,residual activity,[14]; compound 10.0 µM,53%
same,residual activity,[15]; compound 0.1 µM,100%
same,residual activity,[15]; compound 1.0 µM,104%
same,residual activity,[15]; compound 10.0 µM,79%
same,residual activity,[16]; compound 0.1 µM,88%
same,residual activity,[16]; compound 1.0 µM,91%
same,residual activity,[16]; compound 10.0 µM,52%
same,residual activity,[17]; compound 0.1 µM,86%
same,residual activity,[17]; compound 1.0 µM,33%
same,residual activity,[17]; compound 10.0 µM,8%
same,residual activity,[18]; compound 0.1 µM,84%
same,residual activity,[18]; compound 1.0 µM,44%
same,residual activity,[18]; compound 10.0 µM,13%
same,residual activity,[19]; compound 0.1 µM,78%
same,residual activity,[19]; compound 1.0 µM,79%
same,residual activity,[20]; compound 0.1 µM,89%
same,residual activity,[20]; compound 1.0 µM,101%
same,residual activity,[20]; compound 10.0 µM,78%
same,residual activity,[21]; compound 0.1 µM,80%
same,residual activity,[21]; compound 1.0 µM,79%
same,residual activity,[21]; compound 10.0 µM,86%
same,residual activity,[22]; compound 0.1 µM,75%
same,residual activity,[22]; compound 1.0 µM,58%
same,residual activity,[22]; compound 10.0 µM,24%
same,residual activity,[23]; compound 0.1 µM,81%
same,residual activity,[23]; compound 1.0 µM,54%
same,residual activity,[23]; compound 10.0 µM,18%
same,residual activity,[24]; compound 0.1 µM,104%
same,residual activity,[24]; compound 1.0 µM,107%
same,residual activity,[24]; compound 10.0 µM,60%
same,residual activity,[25]; compound 0.1 µM,100%
same,residual activity,[25]; compound 10.0 µM,94%
same,residual activity,[26]; compound 0.1 µM,83%
same,residual activity,[26]; compound 1.0 µM,83%
same,residual activity,[26]; compound 10.0 µM,82%
same,residual activity,[27]; compound 0.1 µM,105%
same,residual activity,[27]; compound 1.0 µM,103%
same,residual activity,[27]; compound 10.0 µM,84%
same,residual activity,[28]; compound 0.1 µM,97%
same,residual activity,[28]; compound 1.0 µM,100%
same,residual activity,[28]; compound 10.0 µM,91%
same,residual activity,[29]; compound 0.1 µM,52%
same,residual activity,[29]; compound 1.0 µM,2%
same,residual activity,[29]; compound 10.0 µM,3%
same,residual activity,[30]; compound 0.1 µM,73%
same,residual activity,[30]; compound 1.0 µM,69%
same,residual activity,[30]; compound 10.0 µM,57%
same,residual activity,[31]; compound 1.0 µM,92%
same,residual activity,[31]; compound 10.0 µM,84%
same,residual activity,[32]; compound 0.1 µM,62%
same,residual activity,[32]; compound 1.0 µM,79%
same,residual activity,[32]; compound 10.0 µM,70%
same,residual activity,[33]; compound 0.1 µM,82%
same,residual activity,[33]; compound 1.0 µM,80%
same,residual activity,[33]; compound 10.0 µM,36%
same,residual activity,[34]; compound 0.1 µM,74%
same,residual activity,[34]; compound 1.0 µM,62%
same,residual activity,[34]; compound 10.0 µM,26%
same,residual activity,[35]; compound 0.1 µM,89%
same,residual activity,[35]; compound 1.0 µM,101%
same,residual activity,[35]; compound 10.0 µM,61%
